Source: patent US20210274788A1, “PESTICIDALLY ACTIVE ISOXAZOLINE D[…] AMIDE GROUP AND AN AZETIDINE SULFONE GROUP” (SYNGENTA CROP PROTECTION AG, priority 2018, published 2021)

Key:
Type in all cases: in vivo
[1] = test system: Euschistus heros (Neotropical Brown Stink Bug); assay: Euschistus heros (neotropical brown stink bug), sprayed soybean leaves, N2 nymphs; settings: 120 h, application rate 200 ppm, 5 days after infestation, read-out: effect in at least one of the two categories (mortality or growth inhibition)
Procedure: Euschistus heros (Neotropical Brown Stink Bug)
Soybean leaves on agar in 24-well microtiter plates were sprayed with aqueous test solutions prepared from 10,000 ppm DMSO stock solutions. After drying the leaves were infested with N2 nymphs. The samples were assessed for mortality and growth inhibition in comparison to untreated samples 5 days after infestation.

[2] = test system: Plutella xylostella (Diamond Back Moth); assay: Plutella xylostella (diamond back moth), treated artificial diet, eggs; settings: 192 h, application rate 200 ppm, 8 days after infestation, read-out: effect in at least one of the two categories (mortality or growth inhibition)
Procedure: Plutella xylostella (Diamond Back Moth)
24-well microtiter plates with artificial diet were treated with aqueous test solutions prepared from 10,000 ppm DMSO stock solutions by pipetting. After drying, Plutella eggs were pipetted through a plastic stencil onto a gel blotting paper and the plate was closed with it. The samples were assessed for mortality and growth inhibition in comparison to untreated samples 8 days after infestation.

[3] = test system: Spodoptera littoralis (Egyptian Cotton Leaf Worm); assay: Spodoptera littoralis (Egyptian cotton leaf worm), cotton leaf discs, L1 larvae; settings: foliar, 72 h, application rate 200 ppm, 3 days after infestation
Procedure: Spodoptera littoralis (Egyptian Cotton Leaf Worm)
Cotton leaf discs were placed onto agar in 24-well microtiter plates and sprayed with aqueous test solutions prepared from 10,000 ppm DMSO stock solutions. After drying the leaf discs were infested with five L1 larvae. The samples were assessed for mortality, anti-feeding effect, and growth inhibition in comparison to untreated samples 3 days after infestation. Control of Spodoptera littoralis by a test sample is given when at least one of the categories mortality, anti-feedant effect, and growth inhibition is higher than the untreated sample.

CCOCN(C(=O)c1ccc(C2=NO[C@@](c3cc(Cl)c(F)c(Cl)c3)(C(F)(F)F)C2)cc1C)C1CN(S(=O)(=O)C(F)F)C1 [Compound A3, 4-[(5S)-5-(3,5-dichloro-4-fluoro-phenyl)-5-(trifluoromethyl)-4H-isoxazol-3-yl]-N-[1-(difluoromethylsulfonyl)azetidin-3-yl]-N-(ethoxymethyl)-2-methyl-benzamide]
≥ 80%: percent effect (mortality or growth inhibition) at 200 ppm [1] | percent effect (mortality or growth inhibition) at 200 ppm [2] | percent control (mortality, anti-feedant effect or growth inhibition) at 200 ppm [3]
